The results in this text go back to US20180008587A1, “THIOHYDANTOIN ANDROGEN RECEPTOR ANTAGONISTS FOR THE TREATMENT OF CANCER” (Jaressen Pharmaceutica NV, priority 2016, published 2018).

Numbering of substitutions follows the chain as printed. Where two headings read alike, the source gives them in different places.

Common to all, as to type: cell-based
Assay [1] deals with T1, F876L mutant Androgen Receptor (AR-F876L) (Homo sapiens, UniProt P10275, F877L).
T1 construct: expressed in transfected cells; host or cells: LNCaP (LNCaP F876L)
T1 sequence (P10275 1-920 F877L): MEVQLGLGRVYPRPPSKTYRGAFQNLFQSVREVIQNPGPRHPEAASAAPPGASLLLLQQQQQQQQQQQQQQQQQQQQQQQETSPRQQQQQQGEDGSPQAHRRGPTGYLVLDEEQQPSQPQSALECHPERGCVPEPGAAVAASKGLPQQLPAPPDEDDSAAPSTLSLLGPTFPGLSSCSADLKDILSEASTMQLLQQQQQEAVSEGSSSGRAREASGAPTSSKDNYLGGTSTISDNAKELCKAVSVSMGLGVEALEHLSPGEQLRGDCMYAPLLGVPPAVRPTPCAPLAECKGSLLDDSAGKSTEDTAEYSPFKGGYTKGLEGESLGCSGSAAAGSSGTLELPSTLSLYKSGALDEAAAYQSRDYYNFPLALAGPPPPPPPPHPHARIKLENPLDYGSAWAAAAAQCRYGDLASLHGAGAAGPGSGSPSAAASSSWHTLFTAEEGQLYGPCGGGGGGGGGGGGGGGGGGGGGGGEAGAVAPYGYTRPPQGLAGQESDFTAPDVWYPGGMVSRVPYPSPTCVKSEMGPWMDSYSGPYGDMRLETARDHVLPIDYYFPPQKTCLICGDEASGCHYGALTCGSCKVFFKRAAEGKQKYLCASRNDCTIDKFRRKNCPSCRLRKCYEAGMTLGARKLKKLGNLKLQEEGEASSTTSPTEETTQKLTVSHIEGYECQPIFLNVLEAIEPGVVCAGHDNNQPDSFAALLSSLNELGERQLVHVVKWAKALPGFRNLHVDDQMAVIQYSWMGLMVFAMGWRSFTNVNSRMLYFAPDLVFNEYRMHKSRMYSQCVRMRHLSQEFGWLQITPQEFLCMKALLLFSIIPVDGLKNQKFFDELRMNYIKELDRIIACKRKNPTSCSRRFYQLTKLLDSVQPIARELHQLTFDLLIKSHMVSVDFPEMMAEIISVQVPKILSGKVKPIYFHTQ
Kind of assay: LNCaP-AR-F876L ANT reporter assay (ARE firefly luciferase, antagonist mode). Conditions: for Emax: read-out: LNCaP-AR-F876L ANT MAX % Inh; for IC50: read-out: LNCaP-AR-F876L ANT pIC50 (converted). The gist of the method: (§1)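 LNCaP stable pooled lines expressing ARE-firefly luciferase, in charcoal-stripped serum medium, were exposed to compounds; antagonist mode used agonist at 400 pM (WT) or 600 pM (F876L).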
Background: In a reporter assay the amount or activity of a reporter protein is the signal.

For assay [2], the target named is T2, wild-type Androgen Receptor (AR-wt) (Homo sapiens, UniProt P10275).
T2 construct: expressed in transfected cells; host or cells: LNCaP (LNCaP AR (cs))
T2 sequence (P10275 1-920): T1 sequence (P10275 1-920 F877L) with L877F
Description: LNCaP-AR-wt AG reporter assay (ARE firefly luciferase, agonist mode). Conditions: for Emax: read-out: LNCaP-AR-wt AG MAX % Stim. An outline of the steps: (§2)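 Puromycin-selected pooled LNCaP populations expressing AR-wt or AR-F876L are seeded in CSS medium and treated with compound for 20-24 h at 37 °C. For antagonist testing, agonist is added at 400 pM (WT) or 600 pM (F876L). Potency values derive from least-squares fitting of luminescence RLU.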

For assay [3], the target named is T1, F876L mutant Androgen Receptor (AR-F876L). Description: LNCaP-AR-F876L AG reporter assay (ARE firefly luciferase, agonist mode). The note with it: for Emax: read-out: LNCaP-AR-F876L AG MAX % Stim. An outline of the steps: as §2
The target of assay [4] is T2, wild-type Androgen Receptor (AR-wt). Kind of assay: LNCaP-AR-wt ANT reporter assay (ARE firefly luciferase, antagonist mode). The note with it: for IC50: antagonist mode, 400 pM R-1881 challenge, −Log10(IC50 [Molar]), read-out: LNCaP-AR-wt ANT pIC50 (converted); for Emax: read-out: LNCaP-AR-wt ANT MAX % Inh. The gist of the method:
as §1

The mark [5] stands for this setting: maximum % inhibition of R1881 control response over tested concentration range.
The mark [6] stands for this setting: agonist mode, −Log10(EC50 [Molar]), read-out: LNCaP-AR-wt AG pEC50 (converted).
Setting [7] is: maximum % stimulation (agonist response) over tested concentration range.
Where [8] appears, read: agonist mode, −Log10(EC50 [Molar]), read-out: LNCaP-AR-F876L AG pEC50 (converted).

As to `Cc1ccc(N2C(=S)N(c3cnc(C#N)c(C(F)(F)F)c3)C(=O)C2(C)C)cc1` [Cpd 110, 5-[4,4-dimethyl-5-oxo-3-(p-tolyl)-2-thioxo-imidazolidin-1-yl]-3-(trifluoromethyl)pyridine-2-carbonitrile], the Emax is 100% in assay [1] (setting [5]), 1.3% in assay [2] (setting [7]), 2.6% in assay [3] (setting [7]) and 100% in assay [4] (setting [5]). Also, the IC50 in assay [1] was 145 nM; in assay [4] it was 195 nM. The EC50 in assay [2] (setting [6]) and in assay [3] (setting [8]) was above 15100 nM each time.

As for `C#CCNC(=O)c1ccc(N2C(=S)N(c3cnc(C#N)c(C(F)(F)F)c3)C(=O)C23CCC3)cc1F` [Cpd 111, 4-[6-[6-cyano-5-(trifluoromethyl)-3-pyridyl]-5-oxo-7-thioxo-6,8-diazaspiro[3.4]octan-8-yl]-2-fluoro-N-prop-2-ynyl-benzamide], the Emax came out at 94.1% in assay [1], 0.5% in assay [2], 2.7% in assay [3] and 102% in assay [4]. Also, the IC50 was 525 nM in assay [1] and 407 nM in assay [4]. For the same compound, the EC50 in assay [2] and in assay [3] was above 15100 nM each time.

On to `N#Cc1ncc(N2C(=O)C3(CCC3)N(c3ccc(OC4CCOCC4)cc3)C2=S)cc1C(F)(F)F` [Cpd 112, 5-[5-oxo-8-(4-tetrahydropyran-4-yloxyphenyl)-7-thioxo-6,8-diazaspiro[3.4]octan-6-yl]-3-(trifluoromethyl)pyridine-2-carbonitrile], for which the Emax in assay [1] (setting [5]) came to 97%; in assay [2] (setting [7]) it was 1.1%; in assay [3] (setting [7]), 2.7%; in assay [4] (setting [5]), 100%. Besides, the IC50 in assay [1] was 331 nM; in assay [4], 355 nM. Further, the EC50 in assay [2] (setting [6]) and in assay [3] (setting [8]) was above 15100 nM each time.

`Cc1cc(N2C(=O)C3(CCC3)N(c3ccc(C(=O)Nc4cncc(F)c4)c(F)c3)C2=S)cnc1C#N` [Cpd 113, 4-[6-(6-cyano-5-methyl-3-pyridyl)-5-oxo-7-thioxo-6,8-diazaspiro[3.4]octan-8-yl]-2-fluoro-N-(5-fluoro-3-pyridyl)benzamide]: the Emax in assay [1] (setting [5]) was 98.2%; in assay [2] (setting [7]), 25.3%; in assay [3] (setting [7]), 3.1%; in assay [4] (setting [5]), 97.4%. In addition, the IC50 in assay [1] is 871 nM; in assay [4] it was 1170 nM. Also, the EC50 in assay [2] (setting [6]) and in assay [3] (setting [8]) was above 15100 nM in each case.

As for `Cc1cncc(-c2ccc(N3C(=S)N(c4cnc(C#N)c(C)c4)C(=O)C34CCC4)cc2)c1` [Cpd 114, 3-methyl-5-[8-[4-(5-methyl-3-pyridyl)phenyl]-5-oxo-7-thioxo-6,8-diazaspiro[3.4]octan-6-yl]pyridine-2-carbonitrile], the Emax was found to be 97.8% in assay [1], 0.7% in assay [2], 3.3% in assay [3] and 98.7% in assay [4]. Also, the results for the IC50 in assay [1] and in assay [4] were 355 nM and 240 nM, respectively. Further, the EC50 in assay [2] and in assay [3] was above 15100 nM each time.

For the compound `Cc1ccc(N2C(=S)N(c3cnc(C#N)c(C(F)(F)F)c3)C(=O)C23CCC3)cc1F` [Cpd 115, 5-[8-(3-fluoro-4-methyl-phenyl)-5-oxo-7-thioxo-6,8-diazaspiro[3.4]octan-6-yl]-3-(trifluoromethyl)pyridine-2-carbonitrile], the Emax in assay [1] (setting [5]) came to 96.1%; in assay [2] (setting [7]), 1.1%; in assay [3] (setting [7]), 3.4%; in assay [4] (setting [5]), 100%. In addition, the figures for the IC50 in assay [1] and in assay [4] were 437 nM and 372 nM, respectively. The EC50 in assay [2] (setting [6]) and in assay [3] (setting [8]) was above 15100 nM in each case.

Consider `Cc1cc(N2C(=O)C3(CCC3)N(c3ccc(OC4CCN(C)CC4)c(F)c3)C2=S)cnc1C#N` [Cpd 116, 5-[8-[3-fluoro-4-[(1-methyl-4-piperidyl)oxy]phenyl]-5-oxo-7-thioxo-6,8-diazaspiro[3.4]octan-6-yl]-3-methyl-pyridine-2-carbonitrile], for which the Emax in assay [1] (setting [5]) came out at 98.6%; in assay [2] (setting [7]), 1.1%; in assay [3] (setting [7]) it was 3.5%; in assay [4] (setting [5]), 95.3%. Besides, the IC50 was 631 nM in assay [1] and 2570 nM in assay [4]. Also, the EC50 in assay [2] (setting [6]) and in assay [3] (setting [8]) was above 15100 nM each time.

Turning to `CNC(=O)c1ccc(N2C(=S)N(c3cnc(C#N)c(C)c3)C(=O)C23CCC3)cc1OC` [Cpd 117, 4-[6-(6-cyano-5-methyl-3-pyridyl)-5-oxo-7-thioxo-6,8-diazaspiro[3.4]octan-8-yl]-2-methoxy-N-methyl-benzamide], the Emax in assay [1] (setting [5]) was 96.4%; in assay [2] (setting [7]), 0.7%; in assay [3] (setting [7]), 3.5%; in assay [4] (setting [5]), 100%. Moreover, the IC50 in assay [1] is 288 nM; in assay [4] it was 1260 nM. The EC50 in assay [2] (setting [6]) and in assay [3] (setting [8]) was above 15100 nM each time.

For the compound `N#Cc1ncc(N2C(=O)C3(CCC3)N(c3ccc(C(=O)NCCCN4CCCC4)c(F)c3)C2=S)cc1C(F)(F)F` [Cpd 118, 4-[6-[6-cyano-5-(trifluoromethyl)-3-pyridyl]-5-oxo-7-thioxo-6,8-diazaspiro[3.4]octan-8-yl]-2-fluoro-N-(3-pyrrolidin-1-ylpropyl)benzamide], the Emax in assay [1] (setting [5]) came to 99.4%; in assay [2] (setting [7]), 0.4%; in assay [3] (setting [7]), 3.9%; in assay [4] (setting [5]), 101%. The IC50 in assay [1] is 158 nM; in assay [4] it was 1100 nM. Moreover, the EC50 in assay [2] (setting [6]) and in assay [3] (setting [8]) was above 15100 nM throughout.

For the compound `Cc1cc(N2C(=O)C3(CCC3)N(c3ccc(-c4cccnc4C)cc3)C2=S)cnc1C#N` [Cpd 119, 3-methyl-5-[8-[4-(2-methyl-3-pyridyl)phenyl]-5-oxo-7-thioxo-6,8-diazaspiro[3.4]octan-6-yl]pyridine-2-carbonitrile], the Emax in assay [1] (setting [5]) was 96%; in assay [2] (setting [7]) it was 2.2%; in assay [3] (setting [7]), 3.9%; in assay [4] (setting [5]), 97.7%. For the same compound, the IC50 in assay [1] was 158 nM; in assay [4], 112 nM. Further, the EC50 in assay [2] (setting [6]) and in assay [3] (setting [8]) was above 15100 nM each time.
